From US20200325518A1, “Systems and Methods for Metabolic Assessment Utilizing 1-Methoxy-PMS Field” (priority 2019, published 2020) come the findings set out here.

What all share (format): cell-based
The subject of one assay is Bacteria. The experiment in a line: BacTiter-Glo luminescence after incubation of bacteria with or without resazurin. The note with it: bacteria incubated 4 hours at 35° C. in presence of resazurin versus added after incubation. The procedure:
Bacteria were inoculated into 96-well microplates comprise cation-adjusted Mueller Hinton broth in the presence and absence of resazurin (alamarBlue™) and incubated at 35° C. for 4 hours. For wells that were not incubated with resazurin, the growth indicator was added immediately after the 4-hour incubation. BacTiter-Glo® reagent (Promega, Madison, Wis.) was added to all wells and luminescence was measured. […] Thus, it can be advantageous to remove growth indicator from test wells during incubation.

The next assay deals with E. coli. Nature of the assay: CLSI overnight reference method MIC of antimicrobials against E. coli strains. The note with it: unit assumed.
The next assay has as its system P. aeruginosa. The experiment in a line: Rapid AST by surface binding of europium probe with time resolved fluorescence. As to conditions: Pseudomonas aeruginosa. As for the experimental part: The x-axis of each graph denotes the concentrations of antimicrobial Amikacin (AMK) in micrograms/milliliter, and the y-axis denotes fluorescence from binding to bacteria surface. Growth check data measured by optical density (Absorbance at 600 nm) of the bacterial culture is denoted for each strain.
AST was performed by surface binding of probe followed by time resolved fluorescence. The P aeruginosa strains were incubated at 35° C. in shaking conditions for 4 hours for attaining growth, and growth check was performed by measuring absorbance of the culture at 600 nm after 4 hours of growth.

[1] abbreviates: E. coli strain Clinical Sample 1.
Setting [2] is: E. coli strain Clinical Sample 2.
The mark [3] stands for this setting: E. coli strain Clinical Sample 4.
Setting [4] is: E. coli strain Clinical Sample 5.
The mark [5] stands for this setting: E. coli strain Clinical Sample 6.
The mark [6] stands for this setting: E. coli strain Clinical Sample 7.
Where [7] appears, read: E. coli strain Clinical Sample 8.
The mark [8] stands for this setting: E. coli strain Clinical Sample 9.
Where [9] appears, read: E. coli strain Clinical Sample 10.
Setting [10] is: E. coli strain Clinical Sample 11.
The mark [11] stands for this setting: E. coli strain Clinical Sample 12.
The mark [12] stands for this setting: E. coli strain Clinical Sample 13.

Converted amounts (≈) assume the structure as drawn. Where two headings read alike, the source gives them in different places.

`O=c1ccc2[n+]([O-])c3ccc(O)cc3oc-2c1` [resazurin, 7-hydroxy-10-oxidophenoxazin-10-ium-3-one]: the “luminescent signal upon addition of BacTiter-Glo (viable bacteria)” value with Bacteria is listed as “less luminescent signal”.
With `CC(C)(O/N=C(\C(=O)N[C@@H]1C(=O)N2C(C(=O)[O-])=C(C[n+]3ccccc3)CS[C@H]12)c1csc(N)n1)C(=O)O` [CAZ, Ceftazidime], the MIC (CLSI Ref) amounted to 0.25 µg/mL with E. coli (E. coli strain BEI 4.097); 4 µg/mL with E. coli (E. coli strain CDC Carba36); 0.25 µg/mL with E. coli (setting [1]); 2 µg/mL in the assay with E. coli (setting [2]); 0.25 µg/mL in the assay with E. coli (setting [3]); 0.25 µg/mL in the assay with E. coli (setting [4]). The MIC (CLSI Ref) in the assay on E. coli (setting [5]) was 0.12 µg/mL; with E. coli (setting [6]) it was 0.25 µg/mL; with E. coli (setting [7]) it was above 32 µg/mL; in the assay on E. coli (setting [8]), above 32 µg/mL; in the assay on E. coli (setting [9]), 0.12 µg/mL; in the assay on E. coli (setting [10]), 0.25 µg/mL. In addition, the MIC (CLSI Ref) in the assay with E. coli (setting [11]) and with E. coli (setting [12]) was 0.12 µg/mL each time.
As a reminder, the MIC is the lowest concentration that inhibits growth of the organism. Take `NCC[C@H](O)C(=O)N[C@@H]1C[C@H](N)[C@@H](O[C@H]2O[C@H](CN)[C@@H](O)[C@H](O)[C@H]2O)[C@H](O)[C@H]1O[C@H]1O[C@H](CO)[C@@H](O)[C@H](N)[C@H]1O` [AMK, Amikacin]: the MIC (CLSI Ref) in the assay with E. coli (E. coli strain BEI 4.097), with E. coli (E. coli strain CDC Carba36), in the assay with E. coli (setting [1]), in the assay on E. coli (setting [2]), in the assay with E. coli (setting [3]) and in the assay with E. coli (setting [4]) was 4 µg/mL in each case. The MIC (CLSI Ref) in the assay with E. coli (setting [5]) was determined as 4 µg/mL; with E. coli (setting [6]) it was 2 µg/mL; in the assay on E. coli (setting [7]) it was 4 µg/mL; with E. coli (setting [8]) it was 4 µg/mL; in the assay with E. coli (setting [9]), 8 µg/mL; with E. coli (setting [10]), 4 µg/mL. Moreover, the MIC (CLSI Ref) in the assay with E. coli (setting [11]) and with E. coli (setting [12]) was 4 µg/mL throughout. Further, the MIC in the assay on P. aeruginosa (P. aeruginosa Strain 1, growth check value 2.18, 4 hours growth, read-out: MIC) was found to be 8 µg/mL (≈ 13.7 µM); with P. aeruginosa (P. aeruginosa Strain 2, growth checkpoint value 1.13, no reliable MIC data obtained, read-out: MIC expected), 8 µg/mL (≈ 13.7 µM).
Turning to Colistin [CST], the MIC (CLSI Ref) with E. coli (E. coli strain BEI 4.097) worked out at 0.12 µg/mL; in the assay on E. coli (E. coli strain CDC Carba36), 0.25 µg/mL; in the assay on E. coli (setting [1]), 0.12 µg/mL; with E. coli (setting [2]) it was 0.12 µg/mL; in the assay on E. coli (setting [3]), 0.25 µg/mL; with E. coli (setting [4]), 0.25 µg/mL. Besides, the MIC (CLSI Ref) in the assay on E. coli (setting [5]) is 0.12 µg/mL; in the assay on E. coli (setting [6]), 0.12 µg/mL; in the assay with E. coli (setting [7]) it was 0.12 µg/mL; with E. coli (setting [8]) it was 0.5 µg/mL; in the assay with E. coli (setting [9]) it was 0.25 µg/mL; in the assay on E. coli (setting [10]), 0.5 µg/mL. The MIC (CLSI Ref) in the assay on E. coli (setting [11]) and in the assay on E. coli (setting [12]) was 0.25 µg/mL each time.
